Experimental data from patent US9555014B2, “Therapeutic regimens” (Radius Health, Inc., priority 2010, dated 2017).
Counter-ions that a name gives are not always drawn.

Assays:
[1] = system: postmenopausal women with frequent, moderate to severe vasomotor symptoms (hot flashes); assay: Phase 2a study: hot flash frequency, severity and composite score; format: in vivo, human (postmenopausal women); details: for Composite Scores by Week: mean; for Mean Severity Scores by Week / Weekly Mean Frequency of Mild, Moderate and Severe Hot Flash Numbers / Weekly Mean Frequency of Moderate and Severe Hot Flash Numbers: mean (SD)
Text: A phase 2a study was undertaken to assess the effect of (R)-6-(2-(ethyl(4-(2-(ethylamino)ethyl)benzyl)amino)-4-methoxyphenyl)-5,6,7,8-tetrahydronaphthalen-2-ol dihydrochloride (referred to as “drug” in tables below) to alleviate hot flashes in postmenopausal women. The study design and objectives are detailed below.
This is a randomized, placebo-controlled, double-blind, parallel-group, Phase 2, multi-center, dose-finding study to evaluate the effects of (R)-6-(2-(ethyl(4-(2-(ethylamino)ethyl)benzyl)amino)-4-methoxyphenyl)-5,6,7,8-tetrahydronaphthalen-2-ol dihydrochloride in the treatment of vasomotor symptoms in postmenopausal women.
A total of 100 eligible patients will be randomized to receive one of 5 blinded treatment regimens. (R)-6-(2-(ethyl(4-(2-(ethylamino)ethyl)benzyl)amino)-4-methoxyphenyl)-5,6,7,8-tetrahydronaphthalen-2-ol dihydrochloride at doses 0, 10, 25, 50 or 100 mg will be dosed for 28-days.
Patients will document in real time hot flash frequency and severity according to a predetermined scale, in the provided electronic or paper Study Diary. Study Diary entries of hot flash frequency and severity and associated symptoms will be reviewed at each study visit. Serum markers of estrogen effect will be measured at specific study visits while on treatment.
The efficacy endpoints assessed are: • Change in frequency of hot flashes over time • Change in severity of hot flashes over time; • Change in composite score of hot flashes over time (frequency×severity)
(R)-6-(2-(ethyl(4-(2-(ethylamino)ethyl)benzyl)amino)-4-methoxyphenyl)-5,6,7,8-tetrahydronaphthalen-2-ol dihydrochloride was provided by sponsor in capsule form for oral administration. All doses (0, 10, 25, 50 and 100 mg) were provided as identical presentations. Each patient was provided with 2 containers of 28-capsules each at the start of treatment and took one capsule from each container every day for 28-days. Placebo contained the same excipients as active medication, but without (R)-6-(2-(ethyl(4-(2-(ethylamino)ethyl)benzyl)amino)-4-methoxyphenyl)-5,6,7,8-tetrahydronaphthalen-2-ol dihydrochloride. The patients were instructed to take the capsules orally in the fasted state (morning).
Changes in the efficacy endpoints of frequency, severity, and composite score of hot flashes over time; associated hot flash symptoms (palpitations, insomnia, joint aches, and headaches), PD markers of estrogen effect (FSH, LH, and lipid profile), drug levels, and MRS were to be summarized using descriptive statistics. Frequency, severity, and composite score of hot flashes over time were to be analyzed using repeated measures analysis of variance (ANOVA) with factors for treatment (treatment groups), time (study day) and their interaction. A linear trend test for treatment groups (placebo, and 10, 25, 50, 100 mg doses of drug) and for study day as well as any potential interaction between the two was to be included as part of the analyses by including both dose and time as continuous variables in the ANOVA model. Pair-wise comparisons of change from baseline were to be tested between the placebo group and each drug dose group for each timepoint; the mean difference together with a 95% confidence interval of the difference was to be presented for placebo compared with each active treatment group. Nominal p-values at Week 4 were to be presented. In addition, graphical presentations of mean (±standard error of the mean) and percent group responses over time together with repeated measures ANOVA to assess potential trend in responses over time in each dose group were to be presented. For the associated vasomotor symptoms (palpitations, insomnia, joint aches, and headaches collected in the patient diaries), patient and event frequencies were to be summarized by treatment week and treatment group.
Hot flashes were also scored according to their severity with a mild hot flash scored a “1”, a moderate hot flash scored a “2” and a severe hot flash scored a “3”. […]

[2] = system: endometrium; assay: Preclinical rat models measuring estrogenic agonist effects on the endometrium; format: in vivo
Text: The results of a phase 2a clinical study assessing the effects of the selective estrogen receptor modulator (SERM) (R)-6-(2-(ethyl(4-(2-(ethylamino)ethyl)benzyl)amino)-4-methoxyphenyl)-5,6,7,8-tetrahydronaphthalen-2-ol on women suffering from hot flushes are reported herein.

## CCNCCc1ccc(CN(CC)c2cc(OC)ccc2[C@@H]2CCc3cc(O)ccc3C2)cc1 [drug, (R)-6-(2-(ethyl(4-(2-(ethylamino)ethyl)benzyl)amino)-4-methoxyphenyl)-5,6,7,8-tetrahydronaphthalen-2-ol dihydrochloride]
[1]; 10 mg daily PO, Week 1, ITT
  Composite Scores by Week: 73.68
  Mean Severity Scores by Week: 1.99 (0.460)
  Weekly Mean Frequency of Mild, Moderate and Severe Hot Flash Numbers: 36.0 (18.97)
  Weekly Mean Frequency of Moderate and Severe Hot Flash Numbers: 30.4 (18.92)
[1]; 10 mg daily PO, Week 2, ITT
  Composite Scores by Week: 47.75
  Mean Severity Scores by Week: 1.80 (0.514)
  Weekly Mean Frequency of Mild, Moderate and Severe Hot Flash Numbers: 27.2 (15.16)
  Weekly Mean Frequency of Moderate and Severe Hot Flash Numbers: 18.5 (13.34)
[1]; 10 mg daily PO, Week 3, ITT
  Composite Scores by Week: 37.15
  Mean Severity Scores by Week: 1.84 (0.570)
  Weekly Mean Frequency of Mild, Moderate and Severe Hot Flash Numbers: 21.2 (12.99)
  Weekly Mean Frequency of Moderate and Severe Hot Flash Numbers: 14.5 (11.92)
[1]; 10 mg daily PO, Week 4, ITT
  Composite Scores by Week: 34.35
  Mean Severity Scores by Week: 1.86 (0.562)
  Weekly Mean Frequency of Mild, Moderate and Severe Hot Flash Numbers: 19.1 (12.95)
  Weekly Mean Frequency of Moderate and Severe Hot Flash Numbers: 13.4 (11.54)
[1]; 10 mg dose vs placebo and 25, 50, 100 mg, Table 8 / FIG. 3
  reduction in severity of hot flashes compared with other groups: greatest reduction in severity of hot flashes at all time points
[1]; 10 mg group vs placebo and 25, 50, 100 mg, Table 6 / FIG. 1
  reduction in moderate and severe hot flashes compared with other groups: greatest reduction in hot flashes at each weekly time point
[1]; 10 mg group vs placebo and 25, 50, 100 mg, Table 7
  reduction in all (mild, moderate and severe) hot flashes compared with other groups: greatest reduction in hot flashes at each weekly time point
[1]; 10 mg group vs placebo and 25, 50, 100 mg, Table 9 / FIG. 4
  composite score reduction compared with other groups: greatest composite score reduction at each weekly timepoint
[1]; 10 mg group, Baseline, ITT
  Weekly Mean Frequency of Mild, Moderate and Severe Hot Flash Numbers: 66.0 (13.89)
  Weekly Mean Frequency of Moderate and Severe Hot Flash Numbers: 63.1 (14.23)
[1]; 10 mg group, Baseline, ITT, mild=1, moderate=2, severe=3
  Mean Severity Scores by Week: 2.37 (0.347)
[1]; 10 mg group, Baseline, ITT, frequency x severity
  Composite Scores by Week: 156.45
[1]; 25 mg daily PO, Week 1, ITT
  Composite Scores by Week: 142.71
  Mean Severity Scores by Week: 2.12 (0.392)
  Weekly Mean Frequency of Mild, Moderate and Severe Hot Flash Numbers: 64.4 (48.88)
  Weekly Mean Frequency of Moderate and Severe Hot Flash Numbers: 57.7 (50.49)
[1]; 25 mg daily PO, Week 2, ITT
  Composite Scores by Week: 102.82
  Mean Severity Scores by Week: 2.09 (0.447)
  Weekly Mean Frequency of Mild, Moderate and Severe Hot Flash Numbers: 48.0 (48.80)
  Weekly Mean Frequency of Moderate and Severe Hot Flash Numbers: 42.3 (49.73)
[1]; 25 mg daily PO, Week 3, ITT
  Composite Scores by Week: 102.59
  Mean Severity Scores by Week: 2.14 (0.408)
  Weekly Mean Frequency of Mild, Moderate and Severe Hot Flash Numbers: 46.6 (56.27)
  Weekly Mean Frequency of Moderate and Severe Hot Flash Numbers: 43.3 (57.15)
[1]; 25 mg daily PO, Week 4, ITT
  Composite Scores by Week: 89.59
  Mean Severity Scores by Week: 2.06 (0.404)
  Weekly Mean Frequency of Mild, Moderate and Severe Hot Flash Numbers: 42.4 (53.18)
  Weekly Mean Frequency of Moderate and Severe Hot Flash Numbers: 37.4 (54.76)
[1]; 25 mg group, Baseline, ITT
  Weekly Mean Frequency of Mild, Moderate and Severe Hot Flash Numbers: 75.8 (46.46)
  Weekly Mean Frequency of Moderate and Severe Hot Flash Numbers: 65.9 (44.30)
[1]; 25 mg group, Baseline, ITT, mild=1, moderate=2, severe=3
  Mean Severity Scores by Week: 2.26 (0.348)
[1]; 25 mg group, Baseline, ITT, frequency x severity
  Composite Scores by Week: 165.47
[1]; 50 mg daily PO, Week 1, ITT
  Composite Scores by Week: 104.35
  Mean Severity Scores by Week: 1.92 (0.402)
  Weekly Mean Frequency of Mild, Moderate and Severe Hot Flash Numbers: 54.0 (27.15)
  Weekly Mean Frequency of Moderate and Severe Hot Flash Numbers: 41.7 (23.79)
[1]; 50 mg daily PO, Week 2, ITT
  Composite Scores by Week: 87.78
  Mean Severity Scores by Week: 1.88 (0.535)
  Weekly Mean Frequency of Mild, Moderate and Severe Hot Flash Numbers: 45.8 (25.16)
  Weekly Mean Frequency of Moderate and Severe Hot Flash Numbers: 32.8 (25.52)
[1]; 50 mg daily PO, Week 3, ITT
  Composite Scores by Week: 77.67
  Mean Severity Scores by Week: 1.86 (0.544)
  Weekly Mean Frequency of Mild, Moderate and Severe Hot Flash Numbers: 40.5 (22.37)
  Weekly Mean Frequency of Moderate and Severe Hot Flash Numbers: 29.6 (25.09)
[1]; 50 mg daily PO, Week 4, ITT
  Composite Scores by Week: 75.06
  Mean Severity Scores by Week: 1.83 (0.568)
  Weekly Mean Frequency of Mild, Moderate and Severe Hot Flash Numbers: 37.9 (23.45)
  Weekly Mean Frequency of Moderate and Severe Hot Flash Numbers: 29.4 (26.53)
[1]; 50 mg group, Baseline, ITT
  Weekly Mean Frequency of Mild, Moderate and Severe Hot Flash Numbers: 76.0 (36.96)
  Weekly Mean Frequency of Moderate and Severe Hot Flash Numbers: 71.9 (36.92)
[1]; 50 mg group, Baseline, ITT, mild=1, moderate=2, severe=3
  Mean Severity Scores by Week: 2.14 (0.313)
[1]; 50 mg group, Baseline, ITT, frequency x severity
  Composite Scores by Week: 162.19
[1]; 100 mg daily PO, Week 1, ITT
  Composite Scores by Week: 104.35
  Mean Severity Scores by Week: 2.04 (0.334)
  Weekly Mean Frequency of Mild, Moderate and Severe Hot Flash Numbers: 48.6 (23.32)
  Weekly Mean Frequency of Moderate and Severe Hot Flash Numbers: 41.9 (24.23)
[1]; 100 mg daily PO, Week 2, ITT
  Composite Scores by Week: 87.18
  Mean Severity Scores by Week: 2.01 (0.406)
  Weekly Mean Frequency of Mild, Moderate and Severe Hot Flash Numbers: 41.6 (27.37)
  Weekly Mean Frequency of Moderate and Severe Hot Flash Numbers: 35.6 (28.06)
[1]; 100 mg daily PO, Week 3, ITT
  Composite Scores by Week: 59.75
  Mean Severity Scores by Week: 1.88 (0.473)
  Weekly Mean Frequency of Mild, Moderate and Severe Hot Flash Numbers: 29.4 (23.91)
  Weekly Mean Frequency of Moderate and Severe Hot Flash Numbers: 24.5 (24.06)
[1]; 100 mg daily PO, Week 4, ITT
  Composite Scores by Week: 43.67
  Mean Severity Scores by Week: 1.89 (0.484)
  Weekly Mean Frequency of Mild, Moderate and Severe Hot Flash Numbers: 23.1 (19.45)
  Weekly Mean Frequency of Moderate and Severe Hot Flash Numbers: 18.6 (19.16)
[1]; 100 mg group, Baseline, ITT
  Weekly Mean Frequency of Mild, Moderate and Severe Hot Flash Numbers: 63.6 (13.23)
  Weekly Mean Frequency of Moderate and Severe Hot Flash Numbers: 58.5 (12.67)
[1]; 100 mg group, Baseline, ITT, mild=1, moderate=2, severe=3
  Mean Severity Scores by Week: 2.21 (0.330)
[1]; 100 mg group, Baseline, ITT, frequency x severity
  Composite Scores by Week: 140.35
[2]
  estrogen agonist stimulation effects on the endometrium: negligible estrogen agonist stimulation effects
